Patent US20240279232A1, “USE OF SUBSTITUTED 5-(4-METHYL-6-PHENYL-4H-BENZO[F]IMIDAZO[1,5-A][1,4] DIAZEPIN-3-YL)-1,2,4-O[…] THE TREATMENT OF INFLAMMATORY CONDITIONS” (priority 2021, published 2024)

Key:
H2 = H2 (Homo sapiens, UniProt P25021); test: PDSP primary binding H2; settings: PDSP primary screening
Procedure: (§1) Because reduction of NO could not be reversed by GABAAR antagonists, the possible binding of MP-IV-010 to other cellular receptors was evaluated in collaboration with the NIMH Psychoactive Drug Screening Program.
(§2) Psychoactive Drug Screening Program. Detailed protocols for the primary and secondary radioligand binding assays can be found in the National Institute of Mental Health's Psychoactive Drug Screening Program (NIMH PDSP) Assay Protocol Book. Briefly, primary and secondary radioligand binding assays are carried out in a final of volume of 125 μL per well in appropriate binding buffer. The radioactive ligand concentration is close to the Kd. Total binding and nonspecific binding are determined in the absence and presence of 10 μM of appropriate reference compound, respectively. In brief, plates are usually incubated at room temperature and in the dark for 90 min. Reactions are stopped by vacuum filtration onto 0.3% polyethyleneimine (PEI) soaked 96-well filter mats using a 96-well Filtermate harvester, followed by three washes with cold PBS buffer. Scintillation cocktail is then melted onto the microwave-dried filters on a hot plate and radioactivity counted in a Microbeta counter. The data (n=6) were analyzed by nonlinear regression.

D2 = D2 (Homo sapiens, UniProt P14416); test: PDSP primary binding D2; settings: PDSP primary screening
Procedure: as §1, §2

M5 = M5 (Homo sapiens, UniProt P08912); test: PDSP primary binding M5; settings: PDSP primary screening
Procedure: as §1, §2

SERT = SERT (Homo sapiens, UniProt P31645); test: PDSP primary binding SERT; settings: PDSP primary screening
Procedure: as §1, §2

Alpha1D = Alpha1D (Homo sapiens, UniProt P25100); test: PDSP primary binding Alpha1D; settings: PDSP primary screening
Procedure: as §1, §2

D5 = D5 (Homo sapiens, UniProt P21918); test: PDSP primary binding D5; settings: PDSP primary screening
Procedure: as §1, §2

DAT = DAT (Homo sapiens, UniProt Q01959); test: PDSP primary binding DAT; settings: PDSP primary screening
Procedure: as §1, §2

σ2 receptor = biological target: T1, σ2 receptor (Homo sapiens, UniProt Q5BJF2); test: σ2 receptor binding (3H-ditolylguanidine, HEK cell lysate)
T1 construct: expressed in transfected cells; host or cells: HEK cells (stably transfected)
Procedure: as §2

Beta3 = Beta3 (Homo sapiens, UniProt P13945); test: PDSP primary binding Beta3; settings: PDSP primary screening
Procedure: as §1, §2

iNOS mRNA = test: iNOS RT-qPCR in activated microglia; type: cell-based, mouse; settings: 10 μM
Procedure: (§3) Mouse microglia were activated with IFNγ/LPS and treated with vehicle or 10 μM GL-IV-03. mRNA was isolated after 15 min, 1 h, 3 h and 6 h and iNOS was quantified using RT-qPCR. Cycle numbers for each sample were normalized to GAPDH using the ΔCt method (n=3). Mouse microglia were activated with IFNγ/LPS and treated with vehicle or 10 μM GL-IV-03 for 24 h. Cellular protein was extracted and analyzed with the mouse iNOS ELISA kit from Abcam (n=3). *, (p<0.05), ** (p<0.01) or *** (p<0.001) significance was calculate with ANOVA.
iNOS RT-qPCR. 1×10^6 mouse microglia cells were plated in 6 well plates (VWR, 10062-892) in 1-2 mL of media, activated with 50 ng/ml LPS (Invivogen, NC9836) and 150 U/mL IFNγ (R&D Systems, 485MI100), and treated with compounds of interest. […] Plates were incubated for stated times at 37° C. and 5% CO2. mRNA was collected using QIAshredder (Qiagen, 79654) and RNeasy Mini Kit (Qiagen, 74104). mRNA was analyzed using the QuantiFast SYBR Green RT-PCR kit (Qiagen, 204154) along with iNOS primers (F. 5′-ACATCAGGTCGGCCATCACT-3′, R: 5′-CGTACCGGATGAGCTGTGAAT-3′). Expected product size was 87 bp. Data were acquired using an Eppendorf Mastercycler Pro and analyzed by the Delta Ct method. Each measurement was carried out in triplicate and significance analyzed by ANOVA. […]

iNOS protein = test: iNOS ELISA in activated microglia; type: cell-based, mouse; settings: 10 μM, 24 h treatment, vs vehicle
Procedure: as §3
iNOS ELISA. Mouse microglia (2 mL of 500,000 cells/mL cell solution) were activated with 50 ng/mL LPS (Invivogen, NC9836) and 150 U/mL IFNγ (R&D Systems, 485M1100), and treated with compounds of interest in 6 well plates (VWR, 10062-892) for 24 hours. […] Cells were lysed with RIPA buffer and protein concentration quantified with the Pierce Rapid Gold BCA Protein Assay Kit (Thermo Scientific, A53227). Samples at 50 μg/mL were analyzed with the Mouse iNOS ELISA kit (ABCAM, ab253219). Absorbance (λ: 450 nm) was measured using a TECAN Infinite M1000 plate reader. Each measurement was carried with an n=3 and significance analyzed by ANOVA.

T1 sequence (Q5BJF2 whole entry, species assumed): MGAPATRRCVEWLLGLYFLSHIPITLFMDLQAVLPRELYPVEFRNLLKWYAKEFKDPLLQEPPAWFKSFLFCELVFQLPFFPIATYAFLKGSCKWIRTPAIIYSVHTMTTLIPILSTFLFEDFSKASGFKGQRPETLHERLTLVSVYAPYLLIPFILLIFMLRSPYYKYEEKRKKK
Sequence of Beta3 (P13945 whole entry): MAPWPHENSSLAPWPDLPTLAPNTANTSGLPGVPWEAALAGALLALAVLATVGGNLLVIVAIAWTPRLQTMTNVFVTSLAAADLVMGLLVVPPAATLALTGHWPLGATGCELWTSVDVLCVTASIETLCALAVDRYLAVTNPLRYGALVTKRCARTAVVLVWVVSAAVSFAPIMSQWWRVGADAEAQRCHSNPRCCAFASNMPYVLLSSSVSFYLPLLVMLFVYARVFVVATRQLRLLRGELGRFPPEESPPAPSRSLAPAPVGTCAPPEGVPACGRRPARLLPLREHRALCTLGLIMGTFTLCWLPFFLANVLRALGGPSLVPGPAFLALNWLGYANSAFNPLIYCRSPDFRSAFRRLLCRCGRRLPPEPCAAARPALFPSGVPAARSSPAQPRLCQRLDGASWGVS
Sequence of Alpha1D (P25100 whole entry): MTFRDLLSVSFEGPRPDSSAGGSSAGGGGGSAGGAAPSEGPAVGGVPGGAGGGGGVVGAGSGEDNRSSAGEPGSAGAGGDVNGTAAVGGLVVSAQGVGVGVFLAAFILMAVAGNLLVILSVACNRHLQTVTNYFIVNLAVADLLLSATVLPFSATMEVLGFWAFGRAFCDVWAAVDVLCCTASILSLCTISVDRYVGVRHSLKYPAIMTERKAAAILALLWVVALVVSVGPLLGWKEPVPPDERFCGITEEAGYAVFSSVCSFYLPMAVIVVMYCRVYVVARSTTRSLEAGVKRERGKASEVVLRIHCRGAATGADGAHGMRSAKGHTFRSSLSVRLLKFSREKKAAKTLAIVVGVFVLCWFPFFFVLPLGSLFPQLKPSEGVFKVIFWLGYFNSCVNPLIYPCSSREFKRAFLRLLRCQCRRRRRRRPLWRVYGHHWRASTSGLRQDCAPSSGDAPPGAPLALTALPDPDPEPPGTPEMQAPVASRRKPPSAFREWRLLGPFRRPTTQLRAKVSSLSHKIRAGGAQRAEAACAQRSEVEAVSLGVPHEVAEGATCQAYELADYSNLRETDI
Sequence of D5 (P21918 whole entry): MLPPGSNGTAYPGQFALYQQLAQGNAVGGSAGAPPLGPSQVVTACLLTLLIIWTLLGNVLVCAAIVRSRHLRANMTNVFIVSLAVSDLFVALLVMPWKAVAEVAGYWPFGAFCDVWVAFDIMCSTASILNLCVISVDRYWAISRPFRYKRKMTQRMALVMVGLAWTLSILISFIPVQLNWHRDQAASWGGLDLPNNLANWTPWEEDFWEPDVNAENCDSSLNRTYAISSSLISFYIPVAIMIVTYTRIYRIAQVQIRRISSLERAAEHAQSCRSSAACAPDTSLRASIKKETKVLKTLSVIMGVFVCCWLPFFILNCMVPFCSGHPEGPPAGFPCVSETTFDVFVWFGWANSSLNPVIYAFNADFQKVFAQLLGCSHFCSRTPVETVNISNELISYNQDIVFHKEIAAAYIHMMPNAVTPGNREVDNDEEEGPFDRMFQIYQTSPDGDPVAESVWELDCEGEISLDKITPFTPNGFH
Sequence of SERT (P31645 whole entry, species assumed): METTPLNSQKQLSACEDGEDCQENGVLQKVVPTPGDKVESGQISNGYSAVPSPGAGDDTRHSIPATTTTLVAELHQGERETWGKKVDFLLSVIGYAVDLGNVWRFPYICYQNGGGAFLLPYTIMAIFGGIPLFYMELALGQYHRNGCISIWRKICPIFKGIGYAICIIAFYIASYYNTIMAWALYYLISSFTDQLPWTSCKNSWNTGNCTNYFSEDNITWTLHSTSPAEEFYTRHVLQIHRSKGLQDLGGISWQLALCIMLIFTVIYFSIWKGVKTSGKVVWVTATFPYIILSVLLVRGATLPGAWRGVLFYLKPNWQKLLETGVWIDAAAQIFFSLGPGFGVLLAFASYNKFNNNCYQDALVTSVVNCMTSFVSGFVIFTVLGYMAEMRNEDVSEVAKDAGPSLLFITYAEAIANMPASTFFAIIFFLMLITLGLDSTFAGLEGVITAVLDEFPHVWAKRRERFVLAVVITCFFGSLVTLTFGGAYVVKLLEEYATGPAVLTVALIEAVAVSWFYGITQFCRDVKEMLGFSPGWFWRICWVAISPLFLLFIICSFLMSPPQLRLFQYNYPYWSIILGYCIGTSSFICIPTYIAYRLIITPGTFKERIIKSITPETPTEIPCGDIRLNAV
Sequence of D2 (P14416 whole entry): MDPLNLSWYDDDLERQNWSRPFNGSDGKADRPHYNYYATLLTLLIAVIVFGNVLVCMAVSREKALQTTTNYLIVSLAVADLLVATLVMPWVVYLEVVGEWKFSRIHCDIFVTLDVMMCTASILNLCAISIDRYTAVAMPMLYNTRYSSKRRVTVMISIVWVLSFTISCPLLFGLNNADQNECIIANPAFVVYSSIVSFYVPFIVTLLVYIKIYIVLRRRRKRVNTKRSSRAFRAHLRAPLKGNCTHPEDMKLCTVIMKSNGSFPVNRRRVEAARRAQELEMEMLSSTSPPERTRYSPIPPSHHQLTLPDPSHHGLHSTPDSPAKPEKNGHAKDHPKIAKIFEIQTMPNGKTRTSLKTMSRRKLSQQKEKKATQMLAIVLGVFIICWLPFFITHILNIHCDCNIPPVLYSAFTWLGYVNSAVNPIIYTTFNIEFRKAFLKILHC
Sequence of DAT (Q01959 whole entry, species assumed): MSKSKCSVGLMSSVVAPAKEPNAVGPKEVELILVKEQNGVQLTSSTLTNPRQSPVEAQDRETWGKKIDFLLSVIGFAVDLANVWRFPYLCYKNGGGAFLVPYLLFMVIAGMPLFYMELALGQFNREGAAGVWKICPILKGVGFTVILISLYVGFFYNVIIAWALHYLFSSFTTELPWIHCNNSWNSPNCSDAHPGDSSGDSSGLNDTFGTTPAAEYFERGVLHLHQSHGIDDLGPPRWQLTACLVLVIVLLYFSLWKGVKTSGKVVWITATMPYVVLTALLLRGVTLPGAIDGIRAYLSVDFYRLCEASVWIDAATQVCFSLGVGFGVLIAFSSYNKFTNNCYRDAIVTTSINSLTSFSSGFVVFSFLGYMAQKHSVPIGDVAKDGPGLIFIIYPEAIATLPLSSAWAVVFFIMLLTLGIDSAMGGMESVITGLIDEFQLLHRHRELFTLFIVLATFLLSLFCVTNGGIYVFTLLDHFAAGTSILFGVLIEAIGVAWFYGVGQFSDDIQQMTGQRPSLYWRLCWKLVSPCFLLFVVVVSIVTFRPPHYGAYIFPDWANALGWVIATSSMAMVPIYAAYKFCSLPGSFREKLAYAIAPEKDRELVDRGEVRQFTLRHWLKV
Sequence of M5 (P08912 whole entry): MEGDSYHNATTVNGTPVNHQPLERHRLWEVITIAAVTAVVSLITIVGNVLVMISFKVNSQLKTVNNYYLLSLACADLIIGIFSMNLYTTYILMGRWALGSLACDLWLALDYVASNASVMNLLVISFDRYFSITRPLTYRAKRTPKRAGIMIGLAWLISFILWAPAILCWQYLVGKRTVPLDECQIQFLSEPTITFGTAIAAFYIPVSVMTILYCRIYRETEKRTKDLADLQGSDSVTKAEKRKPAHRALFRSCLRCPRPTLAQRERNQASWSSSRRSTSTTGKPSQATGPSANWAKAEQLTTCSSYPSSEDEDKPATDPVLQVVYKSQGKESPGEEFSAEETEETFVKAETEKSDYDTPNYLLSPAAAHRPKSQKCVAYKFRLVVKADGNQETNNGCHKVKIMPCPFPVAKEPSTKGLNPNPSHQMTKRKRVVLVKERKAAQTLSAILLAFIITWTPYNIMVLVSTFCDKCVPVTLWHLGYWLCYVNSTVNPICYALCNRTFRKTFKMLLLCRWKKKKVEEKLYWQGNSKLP
Sequence of H2 (P25021 whole entry): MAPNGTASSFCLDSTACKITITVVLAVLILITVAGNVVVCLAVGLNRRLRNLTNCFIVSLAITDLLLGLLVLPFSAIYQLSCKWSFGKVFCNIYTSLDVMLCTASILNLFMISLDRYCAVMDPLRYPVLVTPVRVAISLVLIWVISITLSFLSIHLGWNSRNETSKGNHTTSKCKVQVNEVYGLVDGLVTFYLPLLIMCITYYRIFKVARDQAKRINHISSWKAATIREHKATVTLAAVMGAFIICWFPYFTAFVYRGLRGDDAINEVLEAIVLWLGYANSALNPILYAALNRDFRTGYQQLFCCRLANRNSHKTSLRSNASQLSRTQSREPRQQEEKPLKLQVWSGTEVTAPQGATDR

Compound | Percent Competition H2 (H2) | Percent Competition D2 (D2) | Percent Competition M5 (M5) | Percent Competition SERT (SERT) | Percent Competition Alpha1D (Alpha1D) | Percent Competition D5 (D5) | Percent Competition DAT (DAT) | IC50 (σ2 receptor) | Percent Competition Sigma 2 (σ2 receptor; PDSP primary screening) | Percent Competition Beta3 (Beta3) | iNOS mRNA levels (iNOS mRNA; 15, 60, and 180 minutes) | iNOS mRNA levels (iNOS mRNA; after 6 h) | amount of iNOS protein (iNOS protein)
C#Cc1ccc2c(c1)C(c1ccccc1F)=N[C@H](C)c1c(-c3nc(C(C)C)no3)ncn1-2 [MP-IV-010, (R)-5-(8-ethynyl-6-(2-fluorophenyl)-4-methyl-4H-benzo[f]imidazo[1,5-a][1,4]diazepin-3-yl)-3-isopropyl-1,2,4-oxadiazole] | 28% | 25% | 26% | 22% | 9% | 29% | 14% | 5.2 µM | 64% | 38% |  |  | 
CCc1noc(-c2ncn3c2[C@@H](C)N=C(c2ccccc2F)c2cc(C4CC4)ccc2-3)n1 [GL-IV-03, (R)-5-(8-Cyclopropyl-6-(2-fluorophenyl)-4-methyl-4H-benzo[f]imidazo[1,5-a][1,4]diazepin-3-yl)-3-ethyl-1,2,4-oxadiazole] |  |  |  |  |  |  |  |  |  |  | reduced | increased | significantly lower
